Experimental data published in patent publication US20120029177A1, “HETEROCYCLE-AMINO ACID DERIVATIVES FOR TARGETING CANCER TISSUE AND RADIOACTIVE OR NON-RADIOACTIVE LABELED COMPOUNDS THEREOF” (SNU R&DB FOUNDATION, priority 2009, published 2012).

System: SNU-C4 xenografted nude mice
Assay: Biodistribution study in SNU-C4 xenografted nude mice after intravenous injection
Assay type: in vivo, mouse
Conditions: for % ID/g Tumor: SNU-C4 tumor
Protocol: Human colon cancer cell line SNU-C4 was cultured in RPMI1640 media containing 10% fetal bovine serum and harvested using trypsin. The cells were washed using 10 mL PBS and centrifugation at 3,000 rpm. Each nude mouse was injected with 2×10^5 cells/0.1 mL on the right shoulder subcutaneously. On 13 days post-injection, each 10 μCi/0.1 mL of ^68Ga labeled agent was injected into the xenografted mice through the tail vein. The injected mice were sacrificed at 10 min, 30 min, 1 hr, and 2 hr, cancer, blood, muscle, heart, liver, spleen, stomach, intestine, and bone were obtained, weighed, and their radioactivities were counted. The results were expressed as percentages of injected dose per gram tissue (% ID/g).

[1] = 10 min after intravenous injection
[2] = 30 min after intravenous injection
[3] = 1 hr after intravenous injection
[4] = 2 hr after intravenous injection

Row | Compound | % ID/g Tumor [1] [% ID/g] | % ID/g Tumor [2] [% ID/g] | % ID/g Tumor [3] [% ID/g] | % ID/g Tumor [4] [% ID/g] | % ID/g Blood [1] [% ID/g] | % ID/g Blood [2] [% ID/g] | % ID/g Blood [3] [% ID/g] | % ID/g Blood [4] [% ID/g] | % ID/g Bone [1] [% ID/g] | % ID/g Bone [2] [% ID/g] | % ID/g Bone [3] [% ID/g] | % ID/g Bone [4] [% ID/g] | % ID/g Heart [1] [% ID/g] | % ID/g Heart [2] [% ID/g] | % ID/g Heart [3] [% ID/g] | % ID/g Heart [4] [% ID/g] | % ID/g Intestine [1] [% ID/g] | % ID/g Intestine [2] [% ID/g] | % ID/g Intestine [3] [% ID/g] | % ID/g Intestine [4] [% ID/g] | other results
1 | O=C([O-])CN1CCN(CC(=O)[O-])CCN(CC(=O)O)CCN(CC(=O)[O-])CC1.[68Ga+3] [^68Ga-DOTA, reference compound] | 2.55 ± 0.81 | 1.26 ± 0.23 | 0.60 ± 0.06 | 0.41 ± 0.09 | 7.52 ± 0.77 | 2.76 ± 0.41 | 0.90 ± 0.19 | 0.21 ± 0.01 | 1.86 ± 0.22 | 0.85 ± 0.11 | 0.33 ± 0.10 | 0.17 ± 0.17 | 2.04 ± 0.19 | 0.68 ± 0.09 | 0.23 ± 0.08 | 0.08 ± 0.05 | 1.62 ± 0.11 | 0.68 ± 0.08 | 0.36 ± 0.05 | 0.26 ± 0.08 | % ID/g Kidney [1]: 16.19 ± 1.83 % ID/g; % ID/g Kidney [2]: 6.33 ± 0.95 % ID/g; % ID/g Kidney [3]: 4.13 ± 1.13 % ID/g; % ID/g Kidney [4]: 2.92 ± 0.97 % ID/g; % ID/g Liver [1]: 1.30 ± 0.15 % ID/g; % ID/g Liver [2]: 0.60 ± 0.08 % ID/g; % ID/g Liver [3]: 0.32 ± 0.04 % ID/g; % ID/g Liver [4]: 0.21 ± 0.03 % ID/g; % ID/g Muscle [1]: 2.08 ± 0.11 % ID/g; % ID/g Muscle [2]: 0.70 ± 0.12 % ID/g; % ID/g Muscle [3]: 0.26 ± 0.12 % ID/g; % ID/g Muscle [4]: 0.10 ± 0.04 % ID/g; % ID/g Spleen [1]: 1.41 ± 0.08 % ID/g; % ID/g Spleen [2]: 0.56 ± 0.07 % ID/g; % ID/g Spleen [3]: 0.27 ± 0.06 % ID/g; % ID/g Spleen [4]: 0.18 ± 0.06 % ID/g; % ID/g Stomach [1]: 1.86 ± 0.39 % ID/g; % ID/g Stomach [2]: 0.72 ± 0.15 % ID/g; % ID/g Stomach [3]: 0.26 ± 0.06 % ID/g; % ID/g Stomach [4]: 0.10 ± 0.03 % ID/g
2 | O=C([O-])CN1CCN(CC(=O)[O-])CCN(CC(=O)[O-])CC1.[68Ga+3] [^68Ga-NOTA, reference compound] | 2.69 ± 0.19 | 1.28 ± 0.22 | 0.59 ± 0.18 | 0.43 ± 0.06 | 7.13 ± 0.77 | 2.55 ± 0.31 | 0.41 ± 0.24 | 0.07 ± 0.00 | 1.95 ± 0.06 | 0.65 ± 0.16 | 0.15 ± 0.09 | 0.06 ± 0.07 | 1.83 ± 0.16 | 0.59 ± 0.07 | 0.15 ± 0.10 | 0.07 ± 0.07 | 1.52 ± 0.08 | 0.84 ± 0.10 | 0.33 ± 0.14 | 0.47 ± 0.17 | % ID/g Kidney [1]: 11.61 ± 0.61 % ID/g; % ID/g Kidney [2]: 7.44 ± 1.29 % ID/g; % ID/g Kidney [3]: 3.56 ± 2.10 % ID/g; % ID/g Kidney [4]: 2.73 ± 0.32 % ID/g; % ID/g Liver [1]: 1.98 ± 0.19 % ID/g; % ID/g Liver [2]: 1.44 ± 0.29 % ID/g; % ID/g Liver [3]: 1.04 ± 0.35 % ID/g; % ID/g Liver [4]: 1.21 ± 0.21 % ID/g; % ID/g Muscle [1]: 1.68 ± 0.86 % ID/g; % ID/g Muscle [2]: 0.77 ± 0.19 % ID/g; % ID/g Muscle [3]: 0.20 ± 0.17 % ID/g; % ID/g Muscle [4]: 0.04 ± 0.01 % ID/g; % ID/g Spleen [1]: 1.41 ± 0.19 % ID/g; % ID/g Spleen [2]: 0.62 ± 0.09 % ID/g; % ID/g Spleen [3]: 0.22 ± 0.09 % ID/g; % ID/g Spleen [4]: 0.19 ± 0.03 % ID/g; % ID/g Stomach [1]: 2.13 ± 0.26 % ID/g; % ID/g Stomach [2]: 0.76 ± 0.31 % ID/g; % ID/g Stomach [3]: 0.20 ± 0.10 % ID/g; % ID/g Stomach [4]: 0.11 ± 0.03 % ID/g
